{"source": "paper PMC12675575", "about": "“A BRET biosensor for measuring uncompetitive engagement of PRMT5 complexes in cells” (Nature Communications, 2025)", "key": {"PRMT7": {"molecular_target": "T1, PRMT7 (Homo sapiens, UniProt Q9NVM4)", "T1 construct": "host or cells: HEK293", "T1 sequence (Q9NVM4 1-692)": "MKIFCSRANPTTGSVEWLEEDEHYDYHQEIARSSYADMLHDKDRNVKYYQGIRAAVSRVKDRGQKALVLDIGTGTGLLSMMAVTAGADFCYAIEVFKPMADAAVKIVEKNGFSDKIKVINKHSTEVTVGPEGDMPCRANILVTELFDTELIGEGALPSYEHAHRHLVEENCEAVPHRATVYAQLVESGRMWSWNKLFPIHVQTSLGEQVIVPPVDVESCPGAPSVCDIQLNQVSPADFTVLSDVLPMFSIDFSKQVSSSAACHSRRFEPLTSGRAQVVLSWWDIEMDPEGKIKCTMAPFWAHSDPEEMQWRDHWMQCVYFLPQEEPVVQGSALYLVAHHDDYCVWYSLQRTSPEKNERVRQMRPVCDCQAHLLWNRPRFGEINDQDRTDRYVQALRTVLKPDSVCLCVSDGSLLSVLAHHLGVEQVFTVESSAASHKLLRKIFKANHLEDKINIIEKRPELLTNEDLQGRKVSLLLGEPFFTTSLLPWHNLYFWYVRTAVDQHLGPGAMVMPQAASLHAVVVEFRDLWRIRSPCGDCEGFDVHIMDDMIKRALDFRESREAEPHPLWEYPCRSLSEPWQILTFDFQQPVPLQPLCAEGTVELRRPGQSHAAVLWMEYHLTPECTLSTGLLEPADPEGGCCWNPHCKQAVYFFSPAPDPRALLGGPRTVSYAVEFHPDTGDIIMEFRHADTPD", "experiment": "CBH-002 affinity curve, HEK293, PRMT7-NL fusion", "type": "cell-based", "set-up": "BRET, CBH-002 + DMSO / BRET, CBH-002 + GSK3326595: unit not given here", "details": "for BRET, CBH-002 + DMSO / BRET, CBH-002 + GSK3326595: Figure S2C PRMT7-NL, log([CBH-002])", "method": "(§1) HEK293 cells (ATCC) were cultured in DMEM (Thermo Fisher) + 10% (v/v) FBS (Seredigm), and HCT116 cells (Horizon Discovery, #PAR-034 and #R02-033) were cultured in McCoy’s 5A (Thermo Fisher) + 10% FBS, with incubation in a humidified, 37 °C/5% CO2 incubator. Cells were split 1–3 days prior to performing experiments and used at roughly 80% confluency. […] Cells were transfected according to the manufacturer’s protocol using FuGENE HD (Promega). NanoLuc fusion DNA was diluted into Transfection Carrier DNA (Promega) in Opti-MEM at a ratio of 1:9 (mass/mass), and FuGENE HD was added at a ratio of 1:3 (μg DNA:μL lipid). For experiments using WDR77, untagged WDR77 DNA (Promega) was used in place of Carrier DNA. Formed complexes were combined with cells resuspended to a density of 2 × 10^5 cells/mL in Opti-MEM + 1% FBS at a ratio of 1:20 (vol:vol). Cells were plated into a flask and incubated at 37 °C in a humidified 5% CO2 atmosphere for 18–24 h, before being lifted and seeded into 96-well non-binding surface-treated plates (Corning). Cells were seeded at a density of 2 × 10^5 cells/mL in Opti-MEM + 1% FBS in 100 μL (96-well). The BRET probe CBH-002 was prepared first as a 100× stock in 100% DMSO (Sigma) and then diluted to a 20× stock in NanoBRET Tracer Dilution buffer (Promega). Test compounds were prepared as 1000× stocks in 100% DMSO and diluted to 10× stocks in Opti-MEM to prepare working stocks. […] NanoBRET Complete 3x Substrate was prepared by combining Nano-Glo Substrate and Extracellular NanoLuc Inhibitor in Opti-MEM, according to the manufacturer’s protocol (Promega). NanoBRET Complete 3× Substrate was added to cells and plates were measured on either a PheraSTAR FSX equipped with 450 nm (donor) and 610 nm (acceptor) filters, or a GloMAX Discover equipped with 450/8 nm BP (donor) and 600 nm LP (acceptor) filters, using a 0.3 s integration time.\n(§2) EC50 values were obtained by fitting the BRET probe and compound affinity curves to a sigmoidal four-parameter fit model in Graphpad Prism:1 Y=Ymin+Ymax−Ymin/1+10^LogEC50−Xh where h is the Hill Slope."}, "BRD9": {"molecular_target": "T2, BRD9 (Homo sapiens, UniProt Q9H8M2)", "T2 construct": "host or cells: HEK293", "T2 sequence (Q9H8M2 1-597)": "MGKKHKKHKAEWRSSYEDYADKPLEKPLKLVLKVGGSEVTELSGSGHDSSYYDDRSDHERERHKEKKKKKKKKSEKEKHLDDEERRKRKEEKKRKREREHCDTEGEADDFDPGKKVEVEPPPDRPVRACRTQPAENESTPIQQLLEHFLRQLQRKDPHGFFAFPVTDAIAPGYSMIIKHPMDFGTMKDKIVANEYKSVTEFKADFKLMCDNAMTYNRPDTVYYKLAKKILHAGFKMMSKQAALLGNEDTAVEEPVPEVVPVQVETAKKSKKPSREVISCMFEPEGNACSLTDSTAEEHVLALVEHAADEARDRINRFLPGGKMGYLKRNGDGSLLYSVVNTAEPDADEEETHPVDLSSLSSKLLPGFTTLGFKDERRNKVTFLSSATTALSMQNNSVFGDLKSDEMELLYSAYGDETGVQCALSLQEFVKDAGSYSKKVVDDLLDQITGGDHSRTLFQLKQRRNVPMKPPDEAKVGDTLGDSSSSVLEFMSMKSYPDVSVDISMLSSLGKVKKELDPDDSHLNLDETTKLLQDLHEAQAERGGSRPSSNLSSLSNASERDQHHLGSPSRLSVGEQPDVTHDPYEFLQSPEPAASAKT", "experiment": "CBH-002 affinity curve, HEK293, NL-BRD9 fusion (nuclear control)", "type": "cell-based", "set-up": "BRET, CBH-002 + DMSO / BRET, CBH-002 + GSK3326595: unit not given here", "details": "for BRET, CBH-002 + DMSO / BRET, CBH-002 + GSK3326595: Figure S2F NL-BRD9, log([CBH-002])", "method": "as §1, §2"}}, "note": "Values joined by “and” are separate entries in the source; they are usually repeats but may differ in a detail not shown here. Identical values can stand only once.", "data": [{"smiles": "O=C(CCc1ccc2n1[B-](F)(F)[N+]1=C(c3ccc[nH]3)C=CC1=C2)NCCCCC(=O)N1CCC(Nc2cc(C(=O)NC[C@H](O)CN3CCc4ccccc4C3)ncn2)CC1", "note": "[CBH-002]", "values": [{"measurement": "BRET, CBH-002 + DMSO", "setting": "PRMT7; uM 0.04576", "result": "3.118 and 3.169 and 3.222"}, {"measurement": "BRET, CBH-002 + GSK3326595", "setting": "PRMT7; uM 0.04576", "result": "2.264 and 3.024 and 2.623"}, {"measurement": "BRET, CBH-002 + DMSO", "setting": "PRMT7; uM 0.52288", "result": "4.4157 and 4.315 and 4.82"}, {"measurement": "BRET, CBH-002 + GSK3326595", "setting": "PRMT7; uM 0.52288", "result": "4.289 and 4.449 and 4.432"}, {"measurement": "BRET, CBH-002 + DMSO", "setting": "PRMT7; uM 1", "result": "6.788 and 6.4376 and 8.0011"}, {"measurement": "BRET, CBH-002 + GSK3326595", "setting": "PRMT7; uM 1", "result": "6.64 and 6.225 and 5.521"}, {"measurement": "BRET, CBH-002 + DMSO", "setting": "PRMT7; uM -0.43136", "result": "2.545 and 2.3934 and 2.684"}, {"measurement": "BRET, CBH-002 + GSK3326595", "setting": "PRMT7; uM -0.43136", "result": "2.418 and 2.903 and 2.394"}, {"measurement": "BRET, CBH-002 + DMSO", "setting": "PRMT7; uM -0.90849", "result": "2.174 and 2.245 and 2.2"}, {"measurement": "BRET, CBH-002 + GSK3326595", "setting": "PRMT7; uM -0.90849", "result": "2.014 and 2.113 and 2.172"}, {"measurement": "BRET, CBH-002 + DMSO", "setting": "PRMT7; uM -1.20952", "result": "2.33 and 1.992 and 2.793"}, {"measurement": "BRET, CBH-002 + GSK3326595", "setting": "PRMT7; uM -1.20952", "result": "1.945 and 2.184 and 2.019"}, {"measurement": "BRET, CBH-002 + DMSO", "setting": "PRMT7; uM -1.68664", "result": "2.292 and 2.046 and 2.033"}, {"measurement": "BRET, CBH-002 + GSK3326595", "setting": "PRMT7; uM -1.68664", "result": "2.038 and 1.973 and 2.006"}, {"measurement": "BRET, CBH-002 + DMSO", "setting": "PRMT7; uM -1.98767", "result": "1.964 and 2.061 and 2.054"}, {"measurement": "BRET, CBH-002 + GSK3326595", "setting": "PRMT7; uM -1.98767", "result": "1.921 and 2.272 and 1.954"}, {"measurement": "BRET, CBH-002 + DMSO", "setting": "PRMT7; uM -2.46479", "result": "2.032 and 2.041 and 2.0419"}, {"measurement": "BRET, CBH-002 + GSK3326595", "setting": "PRMT7; uM -2.46479", "result": "2.119 and 2.05 and 2.0804"}, {"measurement": "BRET, CBH-002 + DMSO", "setting": "PRMT7; uM -2.94191", "result": "1.985 and 2.058 and 2.072"}, {"measurement": "BRET, CBH-002 + GSK3326595", "setting": "PRMT7; uM -2.94191", "result": "1.954 and 1.961 and 1.971"}, {"measurement": "CBH-002 engagement at PRMT7", "setting": "PRMT7; HEK293, PRMT7-NL", "result": "did not show engagement"}, {"measurement": "BRET, CBH-002 + DMSO", "setting": "BRD9; uM 0.04576", "result": "1.963 and 1.6096 and 1.753"}, {"measurement": "BRET, CBH-002 + GSK3326595", "setting": "BRD9; uM 0.04576", "result": "1.941 and 1.894 and 1.502"}, {"measurement": "BRET, CBH-002 + DMSO", "setting": "BRD9; uM 0.52288", "result": "4.746 and 4.673 and 4.368"}, {"measurement": "BRET, CBH-002 + GSK3326595", "setting": "BRD9; uM 0.52288", "result": "4.553 and 4.659 and 4.5888"}, {"measurement": "BRET, CBH-002 + DMSO", "setting": "BRD9; uM 1", "result": "11.9924 and 12.071 and 11.0213"}, {"measurement": "BRET, CBH-002 + GSK3326595", "setting": "BRD9; uM 1", "result": "12.0831 and 11.2046 and 11.118"}, {"measurement": "BRET, CBH-002 + DMSO", "setting": "BRD9; uM -0.43136", "result": "0.6619 and 0.5821 and 0.5347"}, {"measurement": "BRET, CBH-002 + GSK3326595", "setting": "BRD9; uM -0.43136", "result": "0.7878 and 0.6009 and 0.5811"}, {"measurement": "CBH-002 engagement at BRD9 (printed BDR9)", "setting": "BRD9; HEK293, NL-BRD9", "result": "did not show engagement"}]}]}
